Results from ChEMBL document CHEMBL4190316, “Synthesis and biological evaluation of 4-biphenylamino-5-halo-2(5H)-furanones as potential anticancer agents” (Eur J Med Chem, 2017).
Activity calls are given as the source filed them. The rule behind the calls is not given here.

Experiments:
[1] = tested on: MCF7; assay: Cell cycle arrest in human MCF7 cells assessed as accumulation at G1 phase at 20 uM after 24 hrs by propidium iodide staining based flow cytometry (reference value: 69.92%); assay type: functional
[2] = tested on: MCF7; assay: Induction of apoptosis in human MCF7 cells assessed as late apoptotic cells at 20 uM after 24 hrs by Annexin-V/PI staining based flow cytometry (reference value: 0.96%); assay type: functional
[3] = tested on: MCF7; assay: Induction of apoptosis in human MCF7 cells assessed as late apoptotic cells at 10 uM after 72 hrs by Annexin-V/PI staining based flow cytometry (reference value: 0.60%); assay type: functional
[4] = tested on: MCF7; assay: Cell cycle arrest in human MCF7 cells assessed as accumulation at G1 phase at 20 uM after 72 hrs by propidium iodide staining based flow cytometry (reference value: 66.42%); assay type: functional
[5] = Octanol-water partition coefficient, log P of the compound at 10 mM after 24 hrs by UV-vis spectroscopic method; assay type: physicochemical
[6] = tested on: MCF7; assay: Cell cycle arrest in human MCF7 cells assessed as accumulation at S phase at 20 uM after 72 hrs by propidium iodide staining based flow cytometry (reference value: 15.59%); assay type: functional
[7] = tested on: MCF7; assay: Induction of apoptosis in human MCF7 cells assessed as necrotic cells at 40 uM after 72 hrs by Annexin-V/PI staining based flow cytometry (reference value: 1.36%); assay type: functional
[8] = tested on: MCF7; assay: Induction of apoptosis in human MCF7 cells assessed as live cells at 20 uM after 24 hrs by Annexin-V/PI staining based flow cytometry (reference value: 94.88%); assay type: functional
[9] = tested on: MCF7; assay: Induction of apoptosis in human MCF7 cells assessed as live cells at 40 uM after 72 hrs by Annexin-V/PI staining based flow cytometry (reference value: 97.7%); assay type: functional
[10] = tested on: MCF7; assay: Induction of apoptosis in human MCF7 cells assessed as early apoptotic cells at 20 uM after 24 hrs by Annexin-V/PI staining based flow cytometry (reference value: 0.13%); assay type: functional
[11] = tested on: MCF7; assay: Induction of apoptosis in human MCF7 cells assessed as late apoptotic cells at 20 uM after 72 hrs by Annexin-V/PI staining based flow cytometry (reference value: 0.60%); assay type: functional
[12] = tested on: Quadruplex DNA; assay: Binding affinity to c-Myc G-quadruplex DNA (unknown origin) at 20 uM incubated for 3 mins by electronic absorption spectra method; assay type: nucleic-acid assay
[13] = tested on: MCF7; assay: Cell cycle arrest in human MCF7 cells assessed as accumulation at G1 phase at 40 uM after 72 hrs by propidium iodide staining based flow cytometry (reference value: 66.42%); assay type: functional
[14] = tested on: MCF7; assay: Induction of apoptosis in human MCF7 cells assessed as early apoptotic cells at 40 uM after 24 hrs by Annexin-V/PI staining based flow cytometry (reference value: 0.13%); assay type: functional
[15] = tested on: MCF7; assay: Induction of apoptosis in human MCF7 cells assessed as early apoptotic cells at 20 uM after 72 hrs by Annexin-V/PI staining based flow cytometry (reference value: 0.28%); assay type: functional
[16] = tested on: Quadruplex DNA; assay: Stabilization of c-Myc G-quadruplex DNA in human MCF7 cells assessed as downregulation of c-Myc protein expression after 72 hrs by Western blot method; assay type: cell-based
[17] = tested on: HaCaT; assay: Cytotoxicity against human HaCaT cells assessed as reduction in cell viability after 72 hrs by MTT assay; assay type: cell-based
[18] = tested on: MCF7; assay: Induction of apoptosis in human MCF7 cells assessed as late apoptotic cells at 40 uM after 72 hrs by Annexin-V/PI staining based flow cytometry (reference value: 0.60%); assay type: functional
[19] = tested on: MCF7; assay: Induction of apoptosis in human MCF7 cells assessed as necrotic cells at 20 uM after 24 hrs by Annexin-V/PI staining based flow cytometry (reference value: 4.03%); assay type: functional
[20] = tested on: MCF7; assay: Cell cycle arrest in human MCF7 cells assessed as accumulation at S phase at 40 uM after 24 hrs by propidium iodide staining based flow cytometry (reference value: 23.16%); assay type: functional
[21] = tested on: MCF7; assay: Cell cycle arrest in human MCF7 cells assessed as accumulation at G2/M phase at 20 uM after 72 hrs by propidium iodide staining based flow cytometry (reference value: 17.99%); assay type: functional
[22] = tested on: C6; assay: Cytotoxicity against rat C6 cells assessed as reduction in cell viability after 72 hrs by MTT assay; assay type: functional, cell-based; conditions: C6, 72 h
[23] = tested on: MCF7; assay: Cell cycle arrest in human MCF7 cells assessed as accumulation at G2/M phase at 10 uM after 72 hrs by propidium iodide staining based flow cytometry (reference value: 17.99%); assay type: functional
[24] = tested on: MCF7; assay: Cell cycle arrest in human MCF7 cells assessed as accumulation at G1 phase at 10 uM after 24 hrs by propidium iodide staining based flow cytometry (reference value: 69.92%); assay type: functional
[25] = tested on: MCF7; assay: Cell cycle arrest in human MCF7 cells assessed as accumulation at S phase at 10 uM after 72 hrs by propidium iodide staining based flow cytometry (reference value: 15.59%); assay type: functional
[26] = tested on: MCF7; assay: Induction of apoptosis in human MCF7 cells assessed as early apoptotic cells at 40 uM after 72 hrs by Annexin-V/PI staining based flow cytometry (reference value: 0.28%); assay type: functional
[27] = tested on: MCF7; assay: Induction of apoptosis in human MCF7 cells assessed as early apoptotic cells at 10 uM after 72 hrs by Annexin-V/PI staining based flow cytometry (reference value: 0.28%); assay type: functional
[28] = tested on: MCF7; assay: Induction of apoptosis in human MCF7 cells assessed as live cells at 40 uM after 24 hrs by Annexin-V/PI staining based flow cytometry (reference value: 94.88%); assay type: functional
[29] = tested on: Quadruplex DNA; assay: Effect on conformation of c-Myc G-quadruplex DNA (unknown origin) at 1 mM measured every 3 mins by CD spectroscopic analysis; assay type: nucleic-acid assay
[30] = tested on: MCF7; assay: Induction of apoptosis in human MCF7 cells assessed as early apoptotic cells at 10 uM after 24 hrs by Annexin-V/PI staining based flow cytometry (reference value: 0.13%); assay type: functional
[31] = tested on: MCF7; assay: Cytotoxicity against human MCF7 cells assessed as reduction in cell viability after 72 hrs by MTT assay; assay type: functional, cell-based; conditions: MCF7, 72 h
[32] = tested on: Quadruplex DNA; assay: Binding affinity to c-Myc G-quadruplex DNA (unknown origin) assessed as hypochromism at 20 uM incubated for 3 mins by electronic absorption spectra method; assay type: nucleic-acid assay
[33] = tested on: MCF7; assay: Cell cycle arrest in human MCF7 cells assessed as accumulation at G2/M phase at 40 uM after 24 hrs by propidium iodide staining based flow cytometry (reference value: 6.91%); assay type: functional
[34] = tested on: MCF7; assay: Induction of apoptosis in human MCF7 cells assessed as late apoptotic cells at 40 uM after 24 hrs by Annexin-V/PI staining based flow cytometry (reference value: 0.96%); assay type: functional
[35] = tested on: MCF7; assay: Cell cycle arrest in human MCF7 cells assessed as accumulation at S phase at 20 uM after 24 hrs by propidium iodide staining based flow cytometry (reference value: 23.16%); assay type: functional
[36] = tested on: MDA-MB-231; assay: Cytotoxicity against human MDA-MB-231 cells assessed as reduction in cell viability after 72 hrs by MTT assay; assay type: functional, cell-based; conditions: MDA-MB-231, 72 h
[37] = tested on: MCF7; assay: Induction of apoptosis in human MCF7 cells assessed as late apoptotic cells at 10 uM after 24 hrs by Annexin-V/PI staining based flow cytometry (reference value: 0.96%); assay type: functional
[38] = tested on: MCF7; assay: Induction of apoptosis in human MCF7 cells assessed as live cells at 10 uM after 72 hrs by Annexin-V/PI staining based flow cytometry (reference value: 97.7%); assay type: functional
[39] = tested on: MCF7; assay: Cell cycle arrest in human MCF7 cells assessed as accumulation at S phase at 10 uM after 24 hrs by propidium iodide staining based flow cytometry (reference value: 23.16%); assay type: functional
[40] = Cytotoxicity against human NCI-EC1 cells assessed as reduction in cell viability after 72 hrs by MTT assay; assay type: functional, cell-based
[41] = tested on: CNE; assay: Cytotoxicity against human CNE1 cells assessed as reduction in cell viability after 72 hrs by MTT assay; assay type: functional, cell-based
[42] = tested on: MCF7; assay: Cell cycle arrest in human MCF7 cells assessed as accumulation at G2/M phase at 40 uM after 72 hrs by propidium iodide staining based flow cytometry (reference value: 17.99%); assay type: functional
[43] = tested on: MCF7; assay: Cell cycle arrest in human MCF7 cells assessed as accumulation at sub-G1 phase at 10 to 40 uM after 24 to 72 hrs by propidium iodide staining based flow cytometry; assay type: functional
[44] = tested on: MCF7; assay: Cell cycle arrest in human MCF7 cells assessed as accumulation at G2/M phase at 20 uM after 24 hrs by propidium iodide staining based flow cytometry (reference value: 6.91%); assay type: functional
[45] = tested on: MCF7; assay: Cell cycle arrest in human MCF7 cells assessed as accumulation at G1 phase at 40 uM after 24 hrs by propidium iodide staining based flow cytometry (reference value: 69.92%); assay type: functional
[46] = tested on: MCF7; assay: Induction of apoptosis in human MCF7 cells assessed as live cells at 20 uM after 72 hrs by Annexin-V/PI staining based flow cytometry (reference value: 97.7%); assay type: functional
[47] = tested on: MCF7; assay: Induction of apoptosis in human MCF7 cells assessed as necrotic cells at 20 uM after 72 hrs by Annexin-V/PI staining based flow cytometry (reference value: 1.36%); assay type: functional
[48] = tested on: MCF7; assay: Induction of apoptosis in human MCF7 cells assessed as necrotic cells at 10 uM after 72 hrs by Annexin-V/PI staining based flow cytometry (reference value: 1.36%); assay type: functional
[49] = tested on: MCF7; assay: Cell cycle arrest in human MCF7 cells assessed as accumulation at S phase at 40 uM after 72 hrs by propidium iodide staining based flow cytometry (reference value: 15.59%); assay type: functional
[50] = tested on: MCF7; assay: Cell cycle arrest in human MCF7 cells assessed as accumulation at G2/M phase after 72 hrs by propidium iodide staining based flow cytometry; assay type: functional
[51] = tested on: Quadruplex DNA; assay: Binding affinity to c-Myc G-quadruplex DNA (unknown origin) at 20 uM incubated for 2 mins by fluorescence emission spectra method; assay type: nucleic-acid assay
[52] = tested on: HepG2; assay: Cytotoxicity against human HepG2 cells assessed as reduction in cell viability after 72 hrs by MTT assay; assay type: functional, cell-based; conditions: HepG2, 72 h
[53] = tested on: MCF7; assay: Induction of apoptosis in human MCF7 cells assessed as live cells at 10 uM after 24 hrs by Annexin-V/PI staining based flow cytometry (reference value: 94.88%); assay type: functional
[54] = tested on: MCF7; assay: Cell cycle arrest in human MCF7 cells assessed as accumulation at G2/M phase at 10 uM after 24 hrs by propidium iodide staining based flow cytometry (reference value: 6.91%); assay type: functional
[55] = tested on: MCF7; assay: Induction of apoptosis in human MCF7 cells assessed as necrotic cells at 40 uM after 24 hrs by Annexin-V/PI staining based flow cytometry (reference value: 4.03%); assay type: functional
[56] = tested on: MCF7; assay: Induction of apoptosis in human MCF7 cells assessed as necrotic cells at 10 uM after 24 hrs by Annexin-V/PI staining based flow cytometry (reference value: 4.03%); assay type: functional
[57] = tested on: MCF7; assay: Cell cycle arrest in human MCF7 cells assessed as accumulation at G1 phase at 10 uM after 72 hrs by propidium iodide staining based flow cytometry (reference value: 66.42%); assay type: functional

CC(=O)OC1OC(=O)C(Br)=C1Nc1ccc(-c2ccc(N)cc2)cc1 (stereo not drawn)
Activity [1]: 68.3%
Activity [2]: 0.07%
Activity [3]: 0.67%
Activity [4]: 61.38%
logP at 24 h, 10000 µM [5]: 1.76
Activity [6]: 15.18%
Activity [7]: 4.94%
Activity [8]: 95.21%
Activity [9]: 93.39%
Activity [10]: 0.13%
Activity [11]: 0.67%
K [12]: 1.6 ×10⁷ /M
Activity [13]: 44.37%
Activity [14]: 4.08%
Activity [15]: 0.55%
Activity [16]: Dose-dependent effect
IC50 [17]: > 100 µM
Activity [18]: 1.19%
Activity [19]: 4.59%
Activity [20]: 26.45%
Activity [21]: 23.44%
IC50 [22]: 15.4 µM
Activity [23]: 20.53%
Activity [24]: 66.44%
Activity [25]: 15.56%
Activity [26]: 0.47%
Activity [27]: 0.32%
Activity [28]: 95.28%
Activity [29]: inactive
Activity [30]: 0.16%
IC50 [31]: 11.8 µM
Activity [32]: 28%
Activity [33]: 17.92%
Activity [34]: 0.5%
Activity [35]: 21.11%
IC50 [36]: 33.7 µM
Activity [37]: 0.13%
Activity [38]: 95.8%
Activity [39]: 23.95%
IC50 [40]: 55.1 µM
IC50 [41]: 49.4 µM
Activity [42]: 35.13%
Activity [43]: inactive
Activity [44]: 10.59%
Activity [45]: 55.63%
Activity [46]: 96.19%
Activity [47]: 2.59%
Activity [48]: 3.2%
Activity [49]: 20.5%
Activity [50]: Dose-dependent effect
Activity [51]: Active
IC50 [52]: 35.3 µM
Activity [53]: 96.89%
Activity [54]: 9.61%
Activity [55]: 0.14%
Activity [56]: 2.82%
Activity [57]: 63.91%

CCOC1OC(=O)C(Cl)=C1Nc1ccc(-c2ccccc2)cc1 (stereo not drawn)
logP at 24 h, 10000 µM [5]: 1.33
IC50 [17]: 49.8 µM
IC50 [22]: 47.9 µM
IC50 [31]: 44.6 µM
IC50 [36]: 38.5 µM
IC50 [40]: 56 µM
IC50 [41]: 47 µM
IC50 [52]: 40.1 µM

CCOC1OC(=O)C(Br)=C1Nc1ccc(-c2ccccc2)cc1 (stereo not drawn)
logP at 24 h, 10000 µM [5]: 1.74
IC50 [17]: 50.8 µM
IC50 [22]: 27.4 µM
IC50 [31]: 46.6 µM
IC50 [36]: 70.4 µM
IC50 [40]: 55 µM
IC50 [41]: 41.8 µM
IC50 [52]: 34.9 µM
